Data set [1] deals with E. coli 14. Kind of data set: MIC, liquid medium test tube series dilution test. It counts as cell-based. Particulars: E. coli 14, 24 hours, 37°C. The procedure, abridged:
(§1)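 Tube dilution, liquid complete medium, 37°C/24 h; MIC = non-turbid tube; units/ml.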

For data set [2], the system named is E. coli 183/58. Briefly: MIC, liquid medium test tube series dilution test. In kind it is cell-based. The following applies: E. coli 183/58, 24 hours, 37°C. The method in brief:
as §1

Data set [3] has as its system E. coli A 261. Kind of data set: MIC, liquid medium test tube series dilution test. Particulars: E. coli A 261, 24 hours, 37°C. In kind it is cell-based. The procedure, abridged: as §1
The subject of data set [4] is E. coli C 165. Briefly: MIC, liquid medium test tube series dilution test. In kind it is cell-based. The following applies: E. coli C 165, 24 hours, 37°C. The method in brief:
as §1

The test system of data set [5] is Klebsiella 63. Kind of data set: MIC, liquid medium test tube series dilution test. In kind it is cell-based. The following applies: Klebsiella 63, 24 hours, 37°C. The method in brief: as §1
In data set [6] the test system is Klebsiella K 10. Kind of data set: MIC, liquid medium test tube series dilution test. It counts as cell-based. The following applies: Klebsiella K 10, 24 hours, 37°C. The procedure, abridged:
as §1

Data set [7] has as its system Proteus vulg. 1017. Briefly: MIC, liquid medium test tube series dilution test. It counts as cell-based, Proteus vulgaris. The following applies: Proteus vulg. 1017, 24 hours, 37°C. The method in brief: as §1
Data set [8] deals with Proteus vulg. 3400. Briefly: MIC, liquid medium test tube series dilution test. The following applies: Proteus vulg. 3400, 24 hours, 37°C. It counts as cell-based, Proteus vulgaris. The method in brief: as §1
Data set [9] concerns Psdm. aerug. Bonn. Briefly: MIC, liquid medium test tube series dilution test. In kind it is cell-based, Pseudomonas aerug. Particulars: 24 hours, 37°C. The procedure, abridged: as §1
For data set [10], the system named is Psdm. aerug. Walter. Kind of data set: MIC, liquid medium test tube series dilution test. The following applies: 24 hours, 37°C. In kind it is cell-based, Pseudomonas aerug. The method in brief: as §1
Data set [11] concerns Staph. aureus 133. Briefly: MIC, liquid medium test tube series dilution test. It counts as cell-based, Staphylococcus aureus. Particulars: Staph. aureus 133, 24 hours, 37°C. The method in brief:
as §1

Data set [12] deals with Staph. aureus 1777 E. Kind of data set: MIC, liquid medium test tube series dilution test. It counts as cell-based, Staphylococcus aureus. Particulars: 24 hours, 37°C. The procedure, abridged: as §1
The subject of data set [13] is Staph. aureus 133. Kind of data set: Surviving mice after intraperitoneal infection and subcutaneous therapy. The following applies: 2 × 200 units/mouse s.c. In kind it is in vivo, white mice, CF1 strain. The procedure: (§2) The experiments on animals (see Table 3) were carried out with white mice of the CF1 strain. The infection took place intraperitoneally with the particular bacterium indicated.

For data set [14], the system named is Klebsiella. The following applies: background statement; cited from earlier work.
The subject of data set [15] is Streptoc. faec. ATCC 9790. Briefly: MIC, liquid medium test tube series dilution test. In kind it is cell-based. Particulars: Strep. faec. (Enterococcus) ATCC 9790, 24 hours, 37°C. The procedure, abridged:
as §1

Data set [16] is described as follows: Acute toxicity (LD50), intravenous injection into the vein of the tail. In kind it is in vivo. The following applies: mouse, in vivo, iv. An excerpt:
Acute toxicity (LD50) in white mice after
intravenous injection into the vein of the […]

Data set [17] is described as follows: Acid stability. The following applies: pH 1 where stated. In kind it is physicochemical.
Data set [18] relates to Pseudomon. aer. F 41. Kind of data set: Surviving mice after intraperitoneal infection and subcutaneous therapy. It counts as in vivo, white mice, CF1 strain. Particulars: 30 min before and 2, 4, 6 hours after infection, 1st day. How it is done: as §2
In data set [19] the test system is Proteus vulgaris 1017. Briefly: Reduction in number of bacteria/ml of blood after subcutaneous administration. In kind it is in vivo, mouse. An excerpt: Reduction in number of bacteria/ml of blood after subcutaneous
administration of Penicillin No. 83.
Infection took place intraperitoneally with Proteus vulgaris 1017, 8
× 10^5 /mouse; ampicillin-resistant.

The nature of data set [20]: Serum level after subcutaneous administration, measured from microbiological activity against Proteus vulgaris 1017. It counts as in vivo, white mice. The following applies: 150.000 units s.c. An excerpt:
Serum level after subcutaneous ("s.c.") administration to white mice, in units/ml of serum, measured from the microbiological activity against Proteus vulgaris 1017 (ampicillin-resistant).

The values below come from patent US3974140A, “Ureidoacetamido-penicillins” (Bayer Aktiengesellschaft, priority 1970, dated 1976).

The LD50 is the dose expected to kill half of the subjects tested.

Bounds are passed on as bounds.

Regarding `CC1(C)S[C@@H]2[C@H](NC(=O)[C@H](N)c3ccccc3)C(=O)N2[C@H]1C(=O)O` [Ampicillin, D(-)-α-Aminobenzylpenicillin, reference compound], the MIC in data set [1] is on record as ~ 0.8 units/ml; in data set [2] it was 200 units/ml; in data set [3], more than 400 units/ml; in [4], 6.25 units/ml; in [5], 100-200 units/ml; in [6], 100-200 units/ml. Besides, the MIC in data set [7] is 400 units/ml; in data set [8], more than 400 units/ml; in data set [9] it was 200 units/ml; in data set [10], 200 units/ml; in [11], less than 1.0 units/ml; in data set [12], 200 units/ml. The “Number of surviving mice” value in [13] (1 day), in data set [13] (2 days), in data set [13] (3 days) and in data set [13] (5 days) was 100% each time. Also, the “Effectiveness against Klebsiella infections” value in data set [14] is on record as “not capable of effectively combating Klebsiella infections”.

On to `CC(=O)N(C)C(=O)N[C@@H](C(=O)N[C@@H]1C(=O)N2[C@@H]1SC(C)(C)[C@@H]2C(=O)O)c1ccccc1` [Example 66A, Sodium D(-)-α-(3-acetyl-3-methyl-ureido)-benzylpenicillin], for which the MIC was 3.12 units/ml in data set [1]; 50 units/ml in [2]; more than 400 units/ml in data set [3]; 12.5 units/ml in [4]; 50 units/ml in [5]; 50 units/ml in [6]. Moreover, the MIC in data set [15] is listed as 25 units/ml; in [7], 50 units/ml; in data set [8], 100 units/ml; in data set [9] it was 6.25 units/ml; in data set [10] it was 12.5 units/ml; in [11], less than 0.78 units/ml. The compound further displayed an MIC in data set [12] of 50 units/ml. Also, the “Number of surviving mice” value in [13] (1 day) came out at 100%; in [13] (2 days) it was 90%; in data set [13] (3 days), 70%; in data set [13] (5 days), 70%. In data set [16], this compound registered an LD50 of more than 4000 mg/kg. In addition, the Stability to acid result in data set [17] is “remain microbiologically active at pH 1 for over one hour”.

Turning to `CC1(C)S[C@@H]2[C@H](NC(=O)C(C(=O)O)c3ccccc3)C(=O)N2[C@H]1C(=O)O` (stereo partly drawn) [Carbenicillin], the “Number of surviving mice” value was found to be 0% in data set [18] (Dose E = 50,000 units/kg), 20% in data set [18] (Dose F = 75,000 units/kg), 70% in [18] (Dose G = 150,000 units/kg) and 70% in [18] (Dose H = 200,000 units/kg). Further, the LD50 in data set [16] was 2700 mg/kg. Also, the “Effectiveness against Klebsiella infections” value in data set [14] is “only effective in man in the case of infections by Klebsiella bacteria if it is administered in continuing high doses”.

Turning to `COc1ccc(C(=O)N(C)C(=O)N[C@@H](C(=O)N[C@@H]2C(=O)N3[C@@H]2SC(C)(C)[C@@H]3C(=O)O)c2ccccc2)cc1[N+](=O)[O-]` [Example 83, Sodium D(-)-α-(3-[4-methoxy-3-nitrobenzoyl]-3-methyl-ureido)-benzylpenicillin], the MIC is on record as 3.12 units/ml in [1]; 6.25 units/ml in data set [2]; 400 units/ml in data set [3]; 6.25 units/ml in data set [4]; 50 units/ml in data set [5]; 25 units/ml in data set [6]. In addition, the MIC in [15] is 100 units/ml; in [7], 25 units/ml; in data set [8] it was 6.25 units/ml; in data set [9], 50 units/ml; in data set [10], 100 units/ml; in data set [11] it was less than 0.78 units/ml. Further, the “Number of surviving mice” value in data set [13] (1 day) was determined as 80%; in data set [13] (2 days) it was 70%; in data set [13] (3 days), 70%; in data set [13] (5 days), 70%. For the same compound, the “Number of bacteria/ml of blood” value in [19] (1 × 50,000 units/kg s.c. 30 min after infection, 30 mins.) was 9 × 10^3 bacteria/ml of blood; in data set [19] (1 × 50,000 units/kg s.c., 60 mins.), 7 × 10^3 bacteria/ml of blood; in data set [19] (1 × 50,000 units/kg s.c., 90 mins.) it was 2 × 10^3 bacteria/ml of blood; in [19] (1 × 50,000 units/kg s.c., 120 mins.), 1 × 10^3 bacteria/ml of blood; in [19] (1 × 50,000 units/kg s.c., 150 mins.), 3 × 10^3 bacteria/ml of blood; in data set [19] (1 × 50,000 units/kg s.c., 180 mins.), 8 × 10^3 bacteria/ml of blood. Besides, the “Number of bacteria/ml of blood” value in data set [19] (50,000 units/kg s.c. after 30 and 90 min, 60 mins.) is 8 × 10^3 bacteria/ml of blood; in [19] (50,000 units/kg s.c. after 30 and 90 min, 90 mins.), ~5 × 10^3 bacteria/ml of blood; in data set [19] (50,000 units/kg s.c. after 30 and 90 min, 120 mins.), 2 × 10^2 bacteria/ml of blood; in [19] (50,000 units/kg s.c. after 30 and 90 min, 150 mins.) it was < 10^1 bacteria/ml of blood; in [19] (50,000 units/kg s.c. after 30 and 90 min, 180 mins.), < 10^1 bacteria/ml of blood; in data set [19] (50,000 units/kg s.c. after 30 min and further 50,000 units/kg after 90 min, 30 mins.) it was 2 × 10^4 bacteria/ml of blood. The LD50 in [16] is more than 1200 mg/kg. In data set [17], the Stability to acid entry is on record as “remain microbiologically active at pH 1 for over one hour”.

For the compound `CN(C(=O)N[C@@H](C(=O)N[C@@H]1C(=O)N2[C@@H]1SC(C)(C)[C@@H]2C(=O)O)c1ccccc1)C(=O)c1ccccc1` [Example 59, Sodium D(-)-α-(3-benzoyl-3-methyl-ureido)-benzylpenicillin], the MIC in data set [1] is recorded as 1.56 units/ml; in data set [2], 3.12 units/ml; in data set [3], more than 400 units/ml; in data set [4] it was 6.25 units/ml; in data set [5] it was 50 units/ml; in [6], 25 units/ml. Moreover, the MIC in data set [15] was 100 units/ml; in data set [7], 6.25 units/ml; in [8], 12.5 units/ml; in data set [9], 12.5 units/ml; in data set [10], 25 units/ml; in data set [11], less than 0.78 units/ml. In data set [12], the MIC was 100 units/ml. The “Number of surviving mice” value in data set [13] (1 day) turned out to be 90%; in [13] (2 days) it was 70%; in [13] (3 days), 70%; in data set [13] (5 days), 70%. For the same compound, the Serum level in data set [20] (15 mins.) is 25 units/ml of serum; in [20] (30 mins.), 20 units/ml of serum; in data set [20] (60 mins.), < 2 units/ml of serum. The Stability to acid entry in data set [17] is on record as “remain microbiologically active at pH 1 for over one hour”.
